Test results taken from publication PMC7044277 (Nature Communications, 2020).
Values joined by “and” are separate entries in the source; they are usually repeats but may differ in a detail not shown here. Equal entries are not always repeated.

Legend:
Type in all cases: cell-based
320 non-olfactory GPCRs [1] = target: T1, 320 non-olfactory GPCRs (Homo sapiens, UniProt Q86SM8); conditions: receptor MRGPRE; replicate values, Fig_4g
T1 construct: expressed in transfected cells; host or cells: HTLA cells

320 non-olfactory GPCRs [2] = target: T2, 320 non-olfactory GPCRs (Homo sapiens, UniProt P20309)
T2 construct: expressed in transfected cells; host or cells: HTLA cells

320 non-olfactory GPCRs [3] = target: T3, 320 non-olfactory GPCRs (Homo sapiens, UniProt Q9UBS5)
T3 construct: expressed in transfected cells; host or cells: HTLA cells

320 non-olfactory GPCRs [4] = target: T4, 320 non-olfactory GPCRs (Homo sapiens, UniProt O15552)
T4 construct: expressed in transfected cells; host or cells: HTLA cells
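Wherever Fold of Basal is given: compound tested at 1 µM final concentration.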
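Wherever GPCRome agonism screen response is given: fold over basal response of each receptor without drug.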

T1 sequence (Q86SM8 whole entry): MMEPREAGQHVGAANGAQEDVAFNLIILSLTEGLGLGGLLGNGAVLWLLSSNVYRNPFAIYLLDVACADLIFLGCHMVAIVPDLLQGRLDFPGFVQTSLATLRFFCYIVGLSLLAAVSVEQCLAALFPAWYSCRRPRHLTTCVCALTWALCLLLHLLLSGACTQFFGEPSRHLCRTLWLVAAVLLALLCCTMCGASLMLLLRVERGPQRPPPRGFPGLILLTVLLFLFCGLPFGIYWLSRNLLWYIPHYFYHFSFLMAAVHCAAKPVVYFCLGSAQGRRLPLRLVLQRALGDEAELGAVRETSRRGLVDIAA
T4 sequence (O15552 whole entry): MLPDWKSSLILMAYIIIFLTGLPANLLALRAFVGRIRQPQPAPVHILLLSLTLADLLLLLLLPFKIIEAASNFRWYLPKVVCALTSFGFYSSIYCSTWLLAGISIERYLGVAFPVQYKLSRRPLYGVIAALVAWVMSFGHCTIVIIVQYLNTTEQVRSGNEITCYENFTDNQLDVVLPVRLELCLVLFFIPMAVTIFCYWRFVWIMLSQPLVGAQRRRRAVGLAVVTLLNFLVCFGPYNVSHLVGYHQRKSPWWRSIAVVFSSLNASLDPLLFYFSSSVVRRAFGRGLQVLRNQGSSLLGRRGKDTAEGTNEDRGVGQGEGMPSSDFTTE
T2 sequence (P20309 whole entry): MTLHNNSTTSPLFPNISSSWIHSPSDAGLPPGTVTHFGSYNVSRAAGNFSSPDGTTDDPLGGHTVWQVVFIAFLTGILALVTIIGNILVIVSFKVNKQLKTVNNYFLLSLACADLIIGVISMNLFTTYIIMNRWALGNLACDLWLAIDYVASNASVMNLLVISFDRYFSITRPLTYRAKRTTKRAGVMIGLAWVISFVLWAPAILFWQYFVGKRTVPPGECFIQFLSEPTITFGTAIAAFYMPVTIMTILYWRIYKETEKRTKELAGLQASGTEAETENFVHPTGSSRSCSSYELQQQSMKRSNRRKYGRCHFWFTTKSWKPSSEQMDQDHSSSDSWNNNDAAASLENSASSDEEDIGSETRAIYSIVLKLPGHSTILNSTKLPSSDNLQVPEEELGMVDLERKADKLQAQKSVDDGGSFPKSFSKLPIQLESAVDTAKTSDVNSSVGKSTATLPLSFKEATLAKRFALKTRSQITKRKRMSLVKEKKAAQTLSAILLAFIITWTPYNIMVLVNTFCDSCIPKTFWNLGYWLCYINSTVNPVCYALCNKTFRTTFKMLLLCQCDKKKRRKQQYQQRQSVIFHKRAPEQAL
T3 sequence (Q9UBS5 20-961): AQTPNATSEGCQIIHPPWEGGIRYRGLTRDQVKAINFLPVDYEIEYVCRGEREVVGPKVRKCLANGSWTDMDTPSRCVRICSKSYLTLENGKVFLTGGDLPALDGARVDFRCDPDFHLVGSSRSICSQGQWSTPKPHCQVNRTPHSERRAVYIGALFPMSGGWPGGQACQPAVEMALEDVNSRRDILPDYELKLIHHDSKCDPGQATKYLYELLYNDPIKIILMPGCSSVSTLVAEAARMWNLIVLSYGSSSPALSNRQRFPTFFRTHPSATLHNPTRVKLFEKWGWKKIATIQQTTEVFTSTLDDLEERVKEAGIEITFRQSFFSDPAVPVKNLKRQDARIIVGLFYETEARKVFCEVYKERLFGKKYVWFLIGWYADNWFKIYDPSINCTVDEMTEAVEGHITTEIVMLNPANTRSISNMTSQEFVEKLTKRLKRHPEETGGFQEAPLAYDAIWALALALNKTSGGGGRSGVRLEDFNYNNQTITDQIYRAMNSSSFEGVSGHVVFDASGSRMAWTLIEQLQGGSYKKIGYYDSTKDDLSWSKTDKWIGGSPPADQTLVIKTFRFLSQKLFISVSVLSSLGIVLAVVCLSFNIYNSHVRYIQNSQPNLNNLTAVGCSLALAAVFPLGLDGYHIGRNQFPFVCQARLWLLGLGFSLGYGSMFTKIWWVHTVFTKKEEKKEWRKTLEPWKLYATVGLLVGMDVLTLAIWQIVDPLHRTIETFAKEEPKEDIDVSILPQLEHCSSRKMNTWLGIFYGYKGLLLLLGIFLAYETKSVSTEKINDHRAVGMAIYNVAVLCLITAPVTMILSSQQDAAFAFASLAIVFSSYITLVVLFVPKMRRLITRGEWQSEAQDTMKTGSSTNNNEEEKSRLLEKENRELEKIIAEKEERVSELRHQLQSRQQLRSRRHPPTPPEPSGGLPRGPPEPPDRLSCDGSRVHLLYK

CCOc1cccc2cc(C(C)NCC3(O)CCCCC3)oc12 (stereo not shown) [O4LE6]
GPCRome agonism screen response (320 non-olfactory GPCRs [1]): 0.6882 and 1.103 and 0.7685 and 1.012 | Fold of Basal (320 non-olfactory GPCRs [2]): 0.7288 and 1.095 and 0.9519 and 0.808 | Fold of Basal (320 non-olfactory GPCRs [3]): 0.7465 and 0.7299 and 1.058 and 0.6886 | Fold of Basal (320 non-olfactory GPCRs [4]): 0.7744 and 0.8932 and 0.7484 and 0.9767
